This data set in a line: in vitro. As to conditions: human, hek293t cells.
A word on the viability: it is a read-out of living cells in per cent, often relative to untreated cells. Consider `COc1ccc(NC(=O)C(C#N)=CC=Cc2ccccc2)cc1Cl` [8-M18, N-(3-chloro-4-methoxyphenyl)-2-cyano-5-phenylpenta-2,4-dienamide], for which the viability at 48 h, 25 µM was determined as 75.7%. Then `COc1cc(C=C(C#N)C(=O)Nc2nccs2)cc(OC)c1O` [8-M19, 2-cyano-3-(4-hydroxy-3,5-dimethoxyphenyl)-N-(1,3-thiazol-2-yl)prop-2-enamide], with 86.3%; and `CCc1ccc(NC(=O)C(C#N)=Cc2ccc(F)c(C#N)c2)cc1` [8-M20, 2-cyano-3-(3-cyano-4-fluorophenyl)-N-(4-ethylphenyl)prop-2-enamide], with 23.7%. Under `Cc1cccc(C=C(C#N)C(=O)Nc2ccc(C(=O)O)cc2)c1` [8-M21, 4-[2-cyano-3-(3-methylphenyl)prop-2-enamido]benzoic acid] stands 91.6%; under `N#CC(=Cc1ccc(Cl)cc1Cl)C(=O)Nc1ccncc1` [8-M22, 2-cyano-3-(2,4-dichlorophenyl)-N-(pyridin-4-yl)prop-2-enamide], 67%. Then `N#CC(=Cc1cccc(O)c1)C(=O)NCCc1ccccc1` [8-N03, 2-cyano-3-(3-hydroxyphenyl)-N-(2-phenylethyl)prop-2-enamide], with 101%; and `COc1ccc(NC(=O)C(C#N)=Cc2cccc(Cl)c2Cl)cc1` [8-N04, 2-cyano-3-(2,3-dichlorophenyl)-N-(4-methoxyphenyl)prop-2-enamide], with 74.8%. On to `Cc1ccccc1NC(=O)C(C#N)=Cc1ccccc1Cl` [8-N05, 3-(2-chlorophenyl)-2-cyano-N-(2-methylphenyl)prop-2-enamide], for which the viability at 48 h, 25 µM was 47.9%. Under `COc1cc(C=C(C#N)C(=O)Nc2ccc3c(c2)OCCO3)ccc1O` [8-N06, 2-cyano-N-(2,3-dihydro-1,4-benzodioxin-6-yl)-3-(4-hydroxy-3-methoxyphenyl)prop-2-enamide] stands 91.5%. Then `CCOc1ccc(NC(=O)C(C#N)=Cc2ccc(F)cc2)cc1` [8-N07, 2-cyano-N-(4-ethoxyphenyl)-3-(4-fluorophenyl)prop-2-enamide], with 102%; and `N#CC(=CC1=Cc2ccccc2OC1)C(=O)Nc1ccc(C(=O)O)cc1` [8-N08, 4-[3-(2H-chromen-3-yl)-2-cyanoprop-2-enamido]benzoic acid], with 97.6%; and `CNc1ccc(C=C(C#N)C(=O)Nc2ccccc2F)cc1[N+](=O)[O-]` [8-N09, 2-cyano-N-(2-fluorophenyl)-3-[4-(methylamino)-3-nitrophenyl]prop-2-enamide], with 110%. Under `CC(NC(=O)C(C#N)=Cc1cnn(C)c1)c1ccccc1` (centres unmarked) [8-N10, 2-cyano-3-(1-methyl-1H-pyrazol-4-yl)-N-(1-phenylethyl)prop-2-enamide] stands 97%. Turning to `CSc1ccc(C=C(C#N)C(=O)Nc2cccc(Cl)c2C)cc1` [8-N11, N-(3-chloro-2-methylphenyl)-2-cyano-3-[4-(methylsulfanyl)phenyl]prop-2-enamide], the viability at 48 h, 25 µM worked out at 103%.

In the case of `N#CC(=Cc1c2ccccc2c(Cl)c2ccccc12)C(N)=O` [8-N12, 3-(10-chloroanthracen-9-yl)-2-cyanoprop-2-enamide], the viability at 48 h, 25 µM came out at 69.3%. Regarding `CCCCNC(=O)C(C#N)=Cc1cccc2ccccc12` [8-N13, N-butyl-2-cyano-3-(naphthalen-1-yl)prop-2-enamide], the viability at 48 h, 25 µM amounted to 112%.

Regarding `COc1ccc(O)c(C=C(C#N)C(=O)Nc2cccc3ccccc23)c1` [8-N14, 2-cyano-3-(2-hydroxy-5-methoxyphenyl)-N-(naphthalen-1-yl)prop-2-enamide], the viability at 48 h, 25 µM amounted to 117%. Under `N#CC(=Cc1cccc2ccccc12)C(=O)NCc1ccco1` [8-N15, 2-cyano-N-[(furan-2-yl)methyl]-3-(naphthalen-1-yl)prop-2-enamide] stands 91%; under `CC(=O)Nc1ccc(C=C(C#N)C(=O)NC2CCCCC2)cc1` [8-N16, 2-cyano-N-cyclohexyl-3-(4-acetamidophenyl)prop-2-enamide], 95.6%. Then `N#CC(=Cc1ccncc1)C(=O)Nc1ccccc1Cl` [8-N17, N-(2-chlorophenyl)-2-cyano-3-(pyridin-4-yl)prop-2-enamide], with 112%; and `N#CC(=Cc1cn(-c2ccccc2)nc1-c1ccccc1Cl)C(N)=O` [8-N18, 3-[3-(2-chlorophenyl)-1-phenyl-1H-pyrazol-4-yl]-2-cyanoprop-2-enamide], with 91.5%; and `CCCn1c(C)cc(C=C(C#N)C(=O)Nc2cccc(C#N)c2)c1C` [8-N19, 2-cyano-N-(3-cyanophenyl)-3-(2,5-dimethyl-1-propyl-1H-pyrrol-3-yl)prop-2-enamide], with 107%.

Take `CC(NC(=O)C(C#N)=Cc1ccccc1)C12CC3CC(CC(C3)C1)C2` (centres unmarked) [8-N20, N-[1-(adamantan-1-yl)ethyl]-2-cyano-3-phenylprop-2-enamide]: the viability at 48 h, 25 µM was found to be 13.9%. Under `N#CC(=Cc1ccco1)C(=O)NC1CC1` [8-N21, 2-cyano-N-cyclopropyl-3-(furan-2-yl)prop-2-enamide] stands 112%; under `COc1cc(C=C(C#N)C(=O)Nc2cccc(C)c2)c2c(c1)CC(C)O2` (centres unmarked) [8-N22, 2-cyano-3-(5-methoxy-2-methyl-2,3-dihydro-1-benzofuran-7-yl)-N-(3-methylphenyl)prop-2-enamide], 83.2%. In the case of `N#CC(=Cc1ccc(-c2ccc(Cl)cc2)o1)C(=O)Nc1ccccc1` [8-O03, 3-[5-(4-chlorophenyl)furan-2-yl]-2-cyano-N-phenylprop-2-enamide], the viability at 48 h, 25 µM is 58.3%. Turning to `N#CC(=Cc1ccc(N2CCCCC2)cc1)C(=O)NC1CC1` [8-O04, 2-cyano-N-cyclopropyl-3-[4-(piperidin-1-yl)phenyl]prop-2-enamide], the viability at 48 h, 25 µM worked out at 82.3%. For `N#CC(=Cc1ccc(O)c([N+](=O)[O-])c1)C(=O)NCc1ccccc1` [8-O05, N-benzyl-2-cyano-3-(4-hydroxy-3-nitrophenyl)prop-2-enamide], the viability at 48 h, 25 µM was 98.7%.

Turning to `CC(NC(=O)C(C#N)=Cc1cc(F)ccc1F)c1ccccc1` (centres unmarked) [8-O06, 2-cyano-3-(2,5-difluorophenyl)-N-(1-phenylethyl)prop-2-enamide], the viability at 48 h, 25 µM was determined as 25.3%. Then `C=CCNC(=O)C(C#N)=Cc1ccc(C#N)cc1` [8-O07, 2-cyano-3-(4-cyanophenyl)-N-(prop-2-en-1-yl)prop-2-enamide], with 85.6%; and `N#CC(=Cc1cc(F)ccc1F)C(=O)Nc1ccc(Cl)cc1Cl` [8-O08, 2-cyano-N-(2,4-dichlorophenyl)-3-(2,5-difluorophenyl)prop-2-enamide], with 68.1%; and `CCNC(=O)C(C#N)=Cc1ccc(O)c(OCC)c1` [8-O09, 2-cyano-3-(3-ethoxy-4-hydroxyphenyl)-N-ethylprop-2-enamide], with 98.9%. Under `CC(C)Oc1ccc(C=C(C#N)C(=O)NC2CCCC2)cc1` [8-O10, 2-cyano-N-cyclopentyl-3-[4-(propan-2-yloxy)phenyl]prop-2-enamide] stands 57.5%; under `N#CC(=Cc1ccc([N+](=O)[O-])cc1)C(=O)Nc1ccc(Cl)cc1` [8-O11, N-(4-chlorophenyl)-2-cyano-3-(4-nitrophenyl)prop-2-enamide], 82.6%. Under `CC1CN(C(=O)C(C#N)=Cc2c(Cl)cccc2Cl)CC(C)O1` (centres unmarked) [8-O12, 3-(2,6-dichlorophenyl)-2-(2,6-dimethylmorpholine-4-carbonyl)prop-2-enenitrile] stands 60.2%; under `COCCNC(=O)C(C#N)=Cc1c(Cl)cccc1Cl` [8-O13, 2-cyano-3-(2,6-dichlorophenyl)-N-(2-methoxyethyl)prop-2-enamide], 55.9%.

`COc1ccc(NC(=O)C(C#N)=Cc2cccs2)cc1` [8-O14, 2-cyano-N-(4-methoxyphenyl)-3-(thiophen-2-yl)prop-2-enamide]: the viability at 48 h, 25 µM came to 75.7%. Then `N#CC(=Cc1c(F)c(F)c(F)c(F)c1F)C(=O)NC1CCCCC1` [8-O15, 2-cyano-N-cyclohexyl-3-(2,3,4,5,6-pentafluorophenyl)prop-2-enamide], with 0.544%; and `N#CC(=Cc1ccc(C#N)cc1)C(=O)Nc1cccc2ccccc12` [8-O16, 2-cyano-3-(4-cyanophenyl)-N-(naphthalen-1-yl)prop-2-enamide], with 38.3%.

`COc1cccc(NC(=O)C(C#N)=Cc2ccc(O)cc2)c1` [8-O17, 2-cyano-3-(4-hydroxyphenyl)-N-(3-methoxyphenyl)prop-2-enamide]: the viability at 48 h, 25 µM amounted to 82.7%. `N#CC(=CC=Cc1ccccc1)C(=O)Nc1ccc(F)c(Cl)c1` [8-O18, N-(3-chloro-4-fluorophenyl)-2-cyano-5-phenylpenta-2,4-dienamide]: the viability at 48 h, 25 µM is 76.2%.

For the compound `N#CC(=Cc1cccc2ccccc12)C(=O)NCc1ccccc1` [8-O19, N-benzyl-2-cyano-3-(naphthalen-1-yl)prop-2-enamide], the viability at 48 h, 25 µM was 48%. Then `Cc1cccc(C)c1NC(=O)C(C#N)=Cc1c(C)n[nH]c1C` [8-O20, 2-cyano-3-(3,5-dimethyl-1H-pyrazol-4-yl)-N-(2,6-dimethylphenyl)prop-2-enamide], with 51.4%; and `COCCNC(=O)C(C#N)=Cc1c(F)cccc1Cl` [8-O21, 3-(2-chloro-6-fluorophenyl)-2-cyano-N-(2-methoxyethyl)prop-2-enamide], with 94.2%; and `CCc1ccc(-c2nn(-c3ccccc3)cc2C=C(C#N)C(N)=O)cc1` [8-O22, 2-cyano-3-[3-(4-ethylphenyl)-1-phenyl-1H-pyrazol-4-yl]prop-2-enamide], with 70.6%. Then `COc1cccc(NC(=O)C(C#N)=Cc2cccc(O)c2)c1` [8-P03, 2-cyano-3-(3-hydroxyphenyl)-N-(3-methoxyphenyl)prop-2-enamide], with 120%; and `N#CC(=Cc1cccc(Cl)c1Cl)C(=O)NCc1ccco1` [8-P04, 2-cyano-3-(2,3-dichlorophenyl)-N-[(furan-2-yl)methyl]prop-2-enamide], with 52.4%.

The record behind these values is PMC11995724, “Antibiotic target discovery by integrated phenotypic and activity-based profiling of electrophilic fragments” (Cell chemical biology, 2025).
